Assays:
Test in all cases: biochemical
Conditions in all cases: read-out: % inhibition mean (Z'Lyte)
ABL1 E255K = ABL1 E255K (Homo sapiens, UniProt P00519, E255K)
ABL1 F317L = ABL1 F317L (Homo sapiens, UniProt P00519, F317L)
ADRBK1 (GRK2) = ADRBK1 (GRK2) (Homo sapiens, UniProt P25098)
AMPK (A1/B2/G2) = AMPK (A1/B2/G2) (Homo sapiens, UniProt Q13131)
AMPK (A2/B1/G2) = AMPK (A2/B1/G2) (Homo sapiens, UniProt P54646)
AMPK A1/B1/G1 = AMPK A1/B1/G1 (Homo sapiens, UniProt Q13131)
CDC42 BPA (MRCKA) = CDC42 BPA (MRCKA) (Homo sapiens, UniProt Q5VT25)
CDK5/p25 = CDK5/p25 (Homo sapiens, UniProt Q00535)
CDK5/p35 = CDK5/p35 (Homo sapiens, UniProt Q00535)
CSNK1D (CK1 delta) = CSNK1D (CK1 delta) (Homo sapiens, UniProt P48730)
Chain of CSNK1D (CK1 delta) (P48730 whole entry): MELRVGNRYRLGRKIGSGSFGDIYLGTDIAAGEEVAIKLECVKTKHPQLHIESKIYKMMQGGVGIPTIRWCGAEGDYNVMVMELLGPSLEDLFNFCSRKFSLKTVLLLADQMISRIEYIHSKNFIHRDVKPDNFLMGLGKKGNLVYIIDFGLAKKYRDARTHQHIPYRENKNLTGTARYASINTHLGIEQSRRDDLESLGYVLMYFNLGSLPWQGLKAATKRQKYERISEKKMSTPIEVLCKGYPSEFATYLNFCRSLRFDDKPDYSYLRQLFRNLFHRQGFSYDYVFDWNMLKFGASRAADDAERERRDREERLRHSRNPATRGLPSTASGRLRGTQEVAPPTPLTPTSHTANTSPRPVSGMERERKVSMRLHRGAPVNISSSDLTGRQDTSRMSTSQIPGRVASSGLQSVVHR

DCAMKL2 (DCK2) = DCAMKL2 (DCK2) (Homo sapiens, UniProt Q8N568)
EGFR (ErbB1) G719C = EGFR (ErbB1) G719C (Homo sapiens, UniProt P00533, G719C)
EPHB2 = EPHB2 (Homo sapiens, UniProt P29323)
Chain of EPHB2 (P29323 whole entry): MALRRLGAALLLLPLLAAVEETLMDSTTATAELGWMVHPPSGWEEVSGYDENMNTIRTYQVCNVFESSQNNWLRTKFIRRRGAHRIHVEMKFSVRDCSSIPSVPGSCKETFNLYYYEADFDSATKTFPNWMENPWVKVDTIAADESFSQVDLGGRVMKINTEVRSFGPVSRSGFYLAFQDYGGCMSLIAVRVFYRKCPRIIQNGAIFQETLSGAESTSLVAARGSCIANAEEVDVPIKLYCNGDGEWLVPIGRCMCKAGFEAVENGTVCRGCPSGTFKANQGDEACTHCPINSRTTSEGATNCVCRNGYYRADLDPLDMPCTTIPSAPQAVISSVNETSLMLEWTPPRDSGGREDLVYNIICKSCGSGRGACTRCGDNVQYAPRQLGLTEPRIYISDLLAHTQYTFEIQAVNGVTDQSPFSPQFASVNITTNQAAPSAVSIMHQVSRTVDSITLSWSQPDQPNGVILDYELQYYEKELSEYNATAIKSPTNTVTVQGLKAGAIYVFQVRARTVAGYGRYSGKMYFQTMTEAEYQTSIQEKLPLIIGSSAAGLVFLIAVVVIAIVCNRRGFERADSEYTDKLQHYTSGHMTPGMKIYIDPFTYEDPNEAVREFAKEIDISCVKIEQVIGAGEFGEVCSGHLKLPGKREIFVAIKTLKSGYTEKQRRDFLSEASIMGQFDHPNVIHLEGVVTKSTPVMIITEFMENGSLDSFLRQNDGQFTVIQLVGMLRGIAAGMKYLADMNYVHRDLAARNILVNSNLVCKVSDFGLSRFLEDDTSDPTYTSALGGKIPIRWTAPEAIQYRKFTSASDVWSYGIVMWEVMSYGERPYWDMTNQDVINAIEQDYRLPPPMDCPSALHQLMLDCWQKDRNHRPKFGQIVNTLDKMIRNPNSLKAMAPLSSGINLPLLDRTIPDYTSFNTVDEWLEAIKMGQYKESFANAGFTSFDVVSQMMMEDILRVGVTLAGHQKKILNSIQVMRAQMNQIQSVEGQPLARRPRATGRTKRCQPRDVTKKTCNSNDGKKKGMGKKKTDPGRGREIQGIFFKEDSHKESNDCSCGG

FGR = FGR (Homo sapiens, UniProt P09769)
GRK5 = GRK5 (Homo sapiens, UniProt P34947)
GSK3B (GSK3 beta) = GSK3B (GSK3 beta) (Homo sapiens, UniProt P49841)
Chain of GSK3B (GSK3 beta) (P49841 whole entry): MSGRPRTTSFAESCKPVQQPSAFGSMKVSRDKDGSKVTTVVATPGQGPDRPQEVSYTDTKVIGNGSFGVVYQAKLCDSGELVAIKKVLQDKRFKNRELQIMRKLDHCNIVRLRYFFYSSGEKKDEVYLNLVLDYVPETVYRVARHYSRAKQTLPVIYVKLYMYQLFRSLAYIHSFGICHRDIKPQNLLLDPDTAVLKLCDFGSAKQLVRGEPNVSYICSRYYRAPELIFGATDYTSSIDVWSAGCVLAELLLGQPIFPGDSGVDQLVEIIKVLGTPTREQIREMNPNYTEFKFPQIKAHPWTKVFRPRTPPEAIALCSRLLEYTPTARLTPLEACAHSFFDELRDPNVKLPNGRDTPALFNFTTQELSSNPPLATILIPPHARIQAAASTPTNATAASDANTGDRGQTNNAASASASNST

LYN A = LYN A (Homo sapiens, UniProt P07948)
MAP3K8 (COT) = MAP3K8 (COT) (Homo sapiens, UniProt P41279)
MAPK11 (p38 beta) = MAPK11 (p38 beta) (Homo sapiens, UniProt Q15759)
MINK1 = MINK1 (Homo sapiens, UniProt Q8N4C8)
PLK1 = PLK1 (Homo sapiens, UniProt P53350)
PRKCD (PKC delta) = PRKCD (PKC delta) (Homo sapiens, UniProt Q05655)
Chain of PRKCD (PKC delta) (Q05655 whole entry): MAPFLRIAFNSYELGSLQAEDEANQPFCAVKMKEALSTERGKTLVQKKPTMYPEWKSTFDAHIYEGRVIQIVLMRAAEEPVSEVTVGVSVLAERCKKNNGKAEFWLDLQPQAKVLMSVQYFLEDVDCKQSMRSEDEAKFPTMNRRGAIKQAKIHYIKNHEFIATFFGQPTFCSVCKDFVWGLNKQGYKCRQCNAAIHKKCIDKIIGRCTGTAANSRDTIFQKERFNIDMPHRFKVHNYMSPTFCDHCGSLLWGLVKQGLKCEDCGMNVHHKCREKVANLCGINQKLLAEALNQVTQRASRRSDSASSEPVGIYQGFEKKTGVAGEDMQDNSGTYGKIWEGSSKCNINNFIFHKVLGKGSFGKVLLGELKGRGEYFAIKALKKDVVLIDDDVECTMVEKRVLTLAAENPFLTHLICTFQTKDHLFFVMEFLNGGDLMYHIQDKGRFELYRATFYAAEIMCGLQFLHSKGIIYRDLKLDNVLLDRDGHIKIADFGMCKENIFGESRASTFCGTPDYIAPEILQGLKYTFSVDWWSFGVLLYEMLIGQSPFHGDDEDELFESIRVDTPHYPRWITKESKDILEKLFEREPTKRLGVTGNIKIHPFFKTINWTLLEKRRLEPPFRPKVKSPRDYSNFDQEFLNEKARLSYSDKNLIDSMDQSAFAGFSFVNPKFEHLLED

PTK2B (FAK2) = PTK2B (FAK2) (Homo sapiens, UniProt Q14289)
RET = RET (Homo sapiens, UniProt P07949)
RPS6KA6 (RSK4) = RPS6KA6 (RSK4) (Homo sapiens, UniProt Q9UK32)
Chain of RPS6KA6 (RSK4) (Q9UK32 whole entry): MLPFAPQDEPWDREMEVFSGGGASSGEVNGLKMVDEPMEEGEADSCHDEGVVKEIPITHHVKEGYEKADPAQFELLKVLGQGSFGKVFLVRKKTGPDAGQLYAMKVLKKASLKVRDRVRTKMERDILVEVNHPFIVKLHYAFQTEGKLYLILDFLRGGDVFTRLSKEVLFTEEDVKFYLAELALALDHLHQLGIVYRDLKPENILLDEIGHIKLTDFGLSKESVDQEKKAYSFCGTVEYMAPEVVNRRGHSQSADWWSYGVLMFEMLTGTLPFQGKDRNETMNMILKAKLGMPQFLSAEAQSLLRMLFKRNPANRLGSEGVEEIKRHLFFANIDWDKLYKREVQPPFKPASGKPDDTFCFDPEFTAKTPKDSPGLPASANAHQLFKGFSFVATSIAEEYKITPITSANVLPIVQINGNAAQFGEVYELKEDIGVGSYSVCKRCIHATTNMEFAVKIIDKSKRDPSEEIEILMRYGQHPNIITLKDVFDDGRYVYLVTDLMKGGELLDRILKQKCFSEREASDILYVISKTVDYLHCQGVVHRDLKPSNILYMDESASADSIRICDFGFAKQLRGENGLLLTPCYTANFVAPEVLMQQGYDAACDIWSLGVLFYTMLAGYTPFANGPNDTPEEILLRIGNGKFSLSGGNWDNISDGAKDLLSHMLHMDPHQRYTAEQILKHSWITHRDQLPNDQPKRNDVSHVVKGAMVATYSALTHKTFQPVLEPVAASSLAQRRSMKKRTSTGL

STK23 (MSSK1) = STK23 (MSSK1) (Homo sapiens, UniProt Q9UPE1)
STK25 (YSK1) = STK25 (YSK1) (Homo sapiens, UniProt O00506)
ZAP70 = ZAP70 (Homo sapiens, UniProt P43403)

Chain of AMPK (A2/B1/G2) (P54646 whole entry): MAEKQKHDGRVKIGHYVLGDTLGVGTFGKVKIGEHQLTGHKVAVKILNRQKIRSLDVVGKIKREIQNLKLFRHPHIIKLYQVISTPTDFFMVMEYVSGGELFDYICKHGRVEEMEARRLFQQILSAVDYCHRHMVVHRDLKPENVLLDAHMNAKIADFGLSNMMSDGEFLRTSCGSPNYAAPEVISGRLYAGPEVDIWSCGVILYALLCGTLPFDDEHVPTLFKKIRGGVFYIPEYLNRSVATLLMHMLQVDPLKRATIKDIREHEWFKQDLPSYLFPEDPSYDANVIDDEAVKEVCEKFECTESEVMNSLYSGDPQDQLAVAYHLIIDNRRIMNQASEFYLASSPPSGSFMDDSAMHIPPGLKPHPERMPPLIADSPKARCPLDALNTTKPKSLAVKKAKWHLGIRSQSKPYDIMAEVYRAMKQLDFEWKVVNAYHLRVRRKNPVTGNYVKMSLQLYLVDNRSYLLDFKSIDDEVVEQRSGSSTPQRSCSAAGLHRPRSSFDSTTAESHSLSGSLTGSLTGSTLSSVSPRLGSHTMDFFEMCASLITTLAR
Chain of AMPK (A2/B1/G2) (Q9UGJ0 whole entry partner): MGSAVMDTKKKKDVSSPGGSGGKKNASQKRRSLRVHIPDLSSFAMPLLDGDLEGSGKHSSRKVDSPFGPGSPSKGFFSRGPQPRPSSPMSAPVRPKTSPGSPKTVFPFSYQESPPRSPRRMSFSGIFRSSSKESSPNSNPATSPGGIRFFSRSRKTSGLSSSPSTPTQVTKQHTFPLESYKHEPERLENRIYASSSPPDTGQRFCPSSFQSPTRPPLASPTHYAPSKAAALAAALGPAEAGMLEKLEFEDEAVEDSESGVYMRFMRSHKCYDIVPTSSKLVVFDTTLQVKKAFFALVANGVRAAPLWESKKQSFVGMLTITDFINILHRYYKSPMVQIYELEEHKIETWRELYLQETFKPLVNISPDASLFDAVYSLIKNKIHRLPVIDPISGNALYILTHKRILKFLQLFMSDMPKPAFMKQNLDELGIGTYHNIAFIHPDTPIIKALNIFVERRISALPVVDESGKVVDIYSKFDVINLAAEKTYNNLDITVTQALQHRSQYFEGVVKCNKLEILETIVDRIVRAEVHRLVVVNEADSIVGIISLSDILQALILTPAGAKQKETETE
Chain of AMPK (A2/B1/G2) (Q9Y478 whole entry partner): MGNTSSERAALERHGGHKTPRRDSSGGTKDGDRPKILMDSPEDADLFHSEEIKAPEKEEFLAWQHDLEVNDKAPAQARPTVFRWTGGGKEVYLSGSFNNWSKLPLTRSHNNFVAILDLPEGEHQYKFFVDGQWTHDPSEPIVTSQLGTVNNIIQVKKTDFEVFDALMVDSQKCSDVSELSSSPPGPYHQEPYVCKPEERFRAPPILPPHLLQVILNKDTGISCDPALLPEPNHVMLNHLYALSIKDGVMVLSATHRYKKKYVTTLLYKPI

Q: Which inhibition at 1 µM (ABL1 E255K) does the source give for `COc1ccc2nc3cc(Cl)ccc3c(Nc3cc(CN4CCCC4)c(O)c(CN4CCCC4)c3)c2n1` [Pyronaridine, 4-[(7-Chloro-2-methoxybenzo[b][1,5]naphthyridin-10-yl)amino]-2,6-bis(1-pyrrolidinylmethyl)phenol phosphate (1:4)] here?
A: 7%

Q: What about the inhibition at 1 µM (ABL1 F317L) of the same compound?
A: -1%

Q: And the inhibition at 1 µM (ADRBK1 (GRK2))?
A: -3%

Q: And the inhibition at 1 µM (AMPK (A1/B2/G2))?
A: -2%

Q: What about the inhibition at 1 µM (AMPK (A2/B1/G2)) of the same compound?
A: 1%

Q: And the inhibition at 1 µM (AMPK A1/B1/G1)?
A: 5%

Q: What about the inhibition at 1 µM (CDC42 BPA (MRCKA)) of the same compound?
A: 2%

Q: What about the inhibition at 1 µM (CDK5/p25) of the same compound?
A: 0%

Q: What about the inhibition at 1 µM (CDK5/p35) of the same compound?
A: 3%

Q: What about the inhibition at 1 µM (CSNK1D (CK1 delta)) of the same compound?
A: 5%

Q: What about the inhibition at 1 µM (DCAMKL2 (DCK2)) of the same compound?
A: -1%

Q: What about the inhibition at 1 µM (EGFR (ErbB1) G719C) of the same compound?
A: -4%

Q: And the inhibition at 1 µM (EPHB2)?
A: 4%

Q: What about the inhibition at 1 µM (FGR) of the same compound?
A: 11%

Q: What about the inhibition at 1 µM (GRK5) of the same compound?
A: 10%

Q: What about the inhibition at 1 µM (GSK3B (GSK3 beta)) of the same compound?
A: 8%

Q: What about the inhibition at 1 µM (LYN A) of the same compound?
A: -2%

Q: And the inhibition at 1 µM (MAP3K8 (COT))?
A: -6%

Q: What about the inhibition at 1 µM (MAPK11 (p38 beta)) of the same compound?
A: -8%

Q: And the inhibition at 1 µM (MINK1)?
A: 7%

Q: And the inhibition at 1 µM (PLK1)?
A: 6%

Q: What about the inhibition at 1 µM (PRKCD (PKC delta)) of the same compound?
A: 3%

Q: And the inhibition at 1 µM (PTK2B (FAK2))?
A: -1%

Q: What about the inhibition at 1 µM (RET) of the same compound?
A: 5%

Q: And the inhibition at 1 µM (RPS6KA6 (RSK4))?
A: 4%

Q: And the inhibition at 1 µM (STK23 (MSSK1))?
A: -2%

Q: What about the inhibition at 1 µM (STK25 (YSK1)) of the same compound?
A: -7%

Q: And the inhibition at 1 µM (ZAP70)?
A: 4%
